# Test results taken from patent EP0325936A2, “Aminoguanidine derivatives and inhibitory agents on maillard reaction containing them as active ingredients” (ONO PHARMACEUTICAL CO., LTD., priority 1988, dated 1989).
# Tested on: Maillard reaction
# Assay: Inhibitory effect on Maillard reaction in vitro (BSA + glucose incubation, fluorescence)
# Assay type: biochemical
# Conditions: 6mM test compound; 100 mg/ml bovine serum albumin (BSA), 200 mM glucose, 0.5 M phosphatic buffer solution (pH 7.38), incubated for a week at 37°C; fluorescence excitation 360nm, emission 450 nm
# Method: An inhibitory activity on Maillard reaction of the compounds of the present invention was confirmed by the screening system mentioned below.
# In order to evaluate the inhibitory effect on Maillard reaction in vitro, of the compounds in the present invention, the measurement was carried out under conditions described below.
# 100 mg/ml bovine serum albumin (BSA), 200 mM glucose and 6mM test compound were dissolved in 0.5 M phosphatic buffer solution (pH 7.38), and the mixture was incubated for a week at 37°C.
# After incubation, the incubated medium was diluted 100 times with the same phosphatic buffer solution, and the fluorescence spectrum was measured at the excitation maximum of 360nm and the emission maximum of 450 nm.
# Inhibition percentage of the test compounds was calculated by the following equation: [formula] ΔI₁ : fluorescence of test compounds ΔI₂ : fluorescence of (test compounds + glucose), ΔI₃ : fluorescence of (test compounds + BSA), ΔI₄ : fluorescence of (test compounds + BSA + glucose), ΔI : fluorescence of (BSA + glucose)
row,SMILES,Inhibitory effect (%) (6mM)
1,"N=C(N)NNc1ccc(F)cc1.O=S(=O)(O)O [1(c), 1-(4-fluoroanilino) guanidine sulfate]",100%
2,"N=C(N)NNc1cccc([N+](=O)[O-])c1.O=S(=O)(O)O [1(j), 1-(3-nitroanilino) guanidine sulfate]",94%
3,"Cc1ccc(NNC(=N)N)cc1.O=S(=O)(O)O [1(h), 1-(4-methylanilino) guanidine sulfate]",83%
4,"N=C(N)NNc1ccccc1Cl.O=S(=O)(O)O [Example 1(a), 1-(2-chloroanilino) guanidine sulfate]",79%
5,"N=C(N)NNc1ccccc1.O=S(=O)(O)O [Example 1, 1-anilinoguanidine sulfate]",79%
6,"N=C(N)NNc1ccc(Cl)cc1.O=S(=O)(O)O [1(b), 1-(4-chloroanilino) guanidine sulfate]",100%
7,"COc1ccc(NNC(=N)N)cc1.O=S(=O)(O)O [1(d), 1-(4-methoxyanilino) guanidine sulfate]",100%
